The record followed here is patent publication US9745360B2 (Sanofi, priority 2012, dated 2017).

SMILES strings stand for the structures. Converted amounts (≈) assume the structure as drawn. Like-named read-outs stand apart in the source and are kept apart here. *1 amine or outer side, *2 acyl side, *3 side chain or, on linkers, in order; H or OH if unused. Where a SMILES comes first, the peptide text is derived from it. Side-chain parts run from the residue outwards. [ ]: non-standard residue; d: D form. The star is where a group is joined. γGlu = O=C(O)[C@H](CCC(=O)[*:2])N[*:1]; Palmitoyl = CCCCCCCCCCCCCCCC(=O)*; αMeK = C[C@](N)(CCCCN)C(=O)O; Aib = CC(C)(N)C(=O)O

Data set [1] concerns the target T1, human GIP receptor (hGIP R) (Homo sapiens, UniProt P48546).
T1 construct: expressed in transfected cells
T1 sequence (P48546 22-466): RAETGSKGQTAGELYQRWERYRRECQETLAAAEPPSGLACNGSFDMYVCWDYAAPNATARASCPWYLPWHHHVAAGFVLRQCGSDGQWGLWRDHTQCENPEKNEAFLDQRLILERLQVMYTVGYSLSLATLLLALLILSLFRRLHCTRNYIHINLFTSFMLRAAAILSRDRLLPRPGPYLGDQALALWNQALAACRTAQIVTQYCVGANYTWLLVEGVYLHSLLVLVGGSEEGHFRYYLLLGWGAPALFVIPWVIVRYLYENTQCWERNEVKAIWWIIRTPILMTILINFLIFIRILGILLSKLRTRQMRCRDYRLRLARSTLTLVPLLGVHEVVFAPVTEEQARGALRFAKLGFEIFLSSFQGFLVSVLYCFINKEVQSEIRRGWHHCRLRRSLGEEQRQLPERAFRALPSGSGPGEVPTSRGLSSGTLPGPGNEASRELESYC
The data set can be described thus: cAMP response (HTRF) of HEK-293 cells stably expressing human GIP receptor. It counts as cell-based. As to conditions: Table 7; cAMP formation. Here is the method: cAMP content of cells was determined using a kit from Cisbio Corp. (cat. no. 62AM4PEC) based on HTRF (Homogenous Time Resolved Fluorescence). For preparation, cells were split into T175 culture flasks and grown overnight to near confluency in medium (DMEM/10% FBS). Medium was then removed and cells washed with PBS lacking calcium and magnesium, followed by proteinase treatment with accutase (Sigma-Aldrich cat. no. A6964). Detached cells were washed and resuspended in assay buffer (1×HBSS; 20 mM HEPES, 0.1% BSA, 2 mM IBMX) and cellular density determined. They were then diluted to 400000 cells/ml and 25 μl-aliquots dispensed into the wells of 96-well plates. For measurement, 25 μl of test compound in assay buffer was added to the wells, followed by incubation for 30 minutes at room temperature.
(In general: TR-FRET usually uses a lanthanide donor and a delayed reading to cut background.)

A short description of data set [2]: Solubility testing in buffer, HPLC-UV of supernatant. As to conditions: buffer, target concentration 1.0 mg/mL. It is filed as physicochemical. The protocol:
Solubility and chemical stability of peptidic compounds were assessed as described in Methods.

A short description of data set [3]: Pharmacokinetic testing in mice, s.c., LC/MS of plasma. It counts as in vivo. As to conditions: mouse, sc, 1 mg/kg s.c. The protocol:
Mice were dosed 1 mg/kg subcutaneously (s.c.).
(§1) Pharmacokinetic profiles were determined as described in Methods.

Data set [4] in a line: Pharmacokinetic testing in female Göttinger minipigs, s.c., LC/MS of plasma. It is filed as in vivo. As to conditions: minipig, sc, Mini pigs, 0.1 mg/kg s.c. Here is the method: as §1
A short description of data set [5]: Subchronic effect on body weight in female diet-induced obese (DIO) C57BL/6NCrl mice (method 2). Particulars: for Overall weight change: 3-week treatment, mean ± SEM; for decrease of body weight, relative change from baseline: 3 weeks. It is filed as in vivo. Here is the method:
Female C57BL/6NCrl mice were housed in groups in a specific pathogen-free barrier facility on a 12 h light/dark cycle with free access to water and high-fat diet. After 14 weeks on high-fat diet, mice were stratified to treatment groups (n=8), so that each group had similar mean body weight. An aged-matched group with ad libitum access to standard chow and water was included as standard control group.
Before the experiment, mice were subcutaneously (s.c.) injected with vehicle solution and weighed for 3 days to acclimate them to the procedures. […] Body weight was recorded daily.
Statistical analyses were performed with Everstat 6.0 by repeated measures two-way ANOVA and Dunnett's post-hoc analyses (glucose profile) and 1-way-ANOVA, followed by Dunnett's post-hoc test (body weight, body fat). Differences versus vehicle-treated DIO control mice were considered statistically significant at the p<0.05 level.
Subchronic effects of SEQ ID NO: 11 after subcutaneous treatment on body weight in female diet-induced obese (DIO) C57BL/6NCrl mice (14 weeks of prefeeding with high-rat diet, method 2)
Female obese C57BL/6NCrl mice were treated for 3 weeks once daily subcutaneously in the late afternoon, prior at the end of the light phase (12 h lights on) with 3 μg/kg and 10 μg/kg SEQ ID NO: 11 or vehicle. Body weight was recorded daily.

The test system of data set [6] is female diabetic dbdb-mice. The data set can be described thus: 4 weeks of treatment: glucose, HbA1c and oral glucose tolerance in female diabetic dbdb-mice (method 4). As to conditions: 3 and 10 μg/kg s.c. once daily. It counts as in vivo. The protocol: 8 week old, female diabetic dbdb-mice of mean non-fasted glucose value of 14.5 mmol/l and a body weight of 37-40 g were used. Mice were individually marked and were adapted to housing conditions for at least one week. 7 days prior to study start, baseline values for non-fasted glucose and HbA1c were determined, 5 days prior to study start, mice were assigned to groups and cages (5 mice per cage, 10 per group) according to their HbA1c values to ensure even distribution of lower and higher values between groups (stratification).
Mice were treated for 4 weeks, by once daily subcutaneous administration 3 hours prior to the dark phase (6 pm to 6 am). Blood samples from a tail tip incision were obtained for HbA1c on study day 21 and oral glucose tolerance was assessed in the 4th week. Oral glucose tolerance test was done in the morning without prior extra compound administration to majorly assess the effect of chronic treatment and less of acute compound administration. Mice were fasted for 4 hours prior to oral glucose administration (2 g/kg, t=0 min). Blood samples were drawn prior to glucose administration and at 15, 30, 60, 90, 120, and 180 min thereafter. Feed was returned after the last blood sampling. Results are represented as change from baseline, glucose in mmol/l and HbA1c in %.
Statistical analyses are performed with Everstat Version 6.0 based on SAS by 1-way-ANOVA, followed by Dunnett's post-hoc test against vehicle-control. Differences are considered statistically significant at the p<0.05 level.
Female dbdb-mice, received 3 and 10 μg/kg of SEQ ID NO: 11 or phosphate buffered saline (vehicle control) once daily, subcutaneously over four weeks. […] (FIG. 3).

What is called EC50 is the concentration giving half of the maximal effect. As usually defined, the solubility is the concentration that dissolves in the medium under given conditions. By Cmax is commonly meant the maximum level reached in the sampled fluid or tissue. The term half-life denotes the time in which the quantity being followed falls by half.

`CCCCCCCCCCCCCCCC(=O)N[C@@H](CCC(=O)NCCCC[C@H](NC(=O)[C@H](CCC(N)=O)NC(=O)[C@@H](NC(=O)[C@H](CO)NC(=O)[C@H](CC(C)C)NC(=O)[C@H](CC(=O)O)NC(=O)[C@H](CO)NC(=O)[C@@H](NC(=O)[C@H](Cc1ccccc1)NC(=O)[C@@H](NC(=O)CNC(=O)[C@H](CCC(=O)O)NC(=O)C(C)(C)NC(=O)[C@@H](N)Cc1ccc(O)cc1)[C@@H](C)O)[C@@H](C)O)[C@@H](C)CC)C(=O)N[C@@H](CCC(=O)O)C(=O)N[C@@H](CCC(=O)O)C(=O)N[C@@H](CCCNC(=N)N)C(=O)N[C@@H](C)C(=O)N[C@@H](C)C(=O)N[C@@](C)(CCCCN)C(=O)N[C@@H](CCC(=O)O)C(=O)N[C@@H](Cc1ccccc1)C(=O)N[C@H](C(=O)N[C@@H](CCC(=O)O)C(=O)N[C@@H](Cc1c[nH]c2ccccc12)C(=O)N[C@@H](CC(C)C)C(=O)N[C@@H](CCCCN)C(=O)N[C@@H](CC(N)=O)C(=O)N[C@H](C(=O)NCC(=O)N1CCC[C@H]1C(=O)N[C@@H](CO)C(=O)N[C@@H](CO)C(=O)NCC(=O)N[C@@H](C)C(=O)N1CCC[C@H]1C(=O)N1CCC[C@H]1C(=O)N1CCC[C@H]1C(=O)N[C@@H](CO)C(N)=O)[C@@H](C)O)[C@@H](C)CC)C(=O)O` [SEQ ID NO: 11, Y-Aib-E-G-T-F-T-S-D-L-S-I-Q-K(γE-x53)-E-E-R-A-A-(S)MeLys-E-F-I-E-W-L-K-N-T-G-P-S-S-G-A-P-P-P-S-NH2] (H-Y[Aib]EGTFTSDLSIQK([γGlu-Palmitoyl])EERAA[αMeK]EFIEWLKNTGPSSGAPPPS-NH2): the midpoint of the response in data set [1], the EC50, lay at 7 pM. The solubility at 2 h in data set [2] (pH 4.5, read-out: Solubility (pH 4.5)) turned out to be 964 µg/mL (≈ 208 µM); in data set [2] (pH 7.4, read-out: Solubility (pH 7.4)), 900 µg/mL (≈ 194 µM). The figures for the Cmax in data set [3] and in data set [4] were 5940 ng/mL and 302 ng/mL, respectively. The values for the half-life in data set [3] and in data set [4] were 4.3 h and 12.6 h, respectively. Besides, the values for the Overall weight change in data set [5] (3 μg/kg s.c. once daily) and in data set [5] (10 μg/kg s.c. once daily) were -3.2 ± 0.6 g and -6.8 ± 0.7 g, respectively. Further, the “decrease of body weight, relative change from baseline” value in data set [5] (3 μg/kg s.c. once daily) turned out to be 7.6%; in data set [5] (10 μg/kg s.c. once daily), 17.4%. In addition, the oral glucose tolerance result in data set [6] (4th week, 2 g/kg oral glucose) is reported as “improved oral glucose tolerance”. Further, the “non-fasted glucose compared to vehicle control” value in data set [6] (four weeks) is given as “reduced statistically significant”. The “HbA1c compared to vehicle control” value in data set [6] (four weeks, p<0.05) was “prevented an increase of HbA1c in a statistical significant manner”. For the same molecule, in data set [6] (oral glucose tolerance test, p<0.05), the “reduction of AUC under the glucose curve compared to vehicle control” value was “reached statistical significance”.
